Reference: ChEMBL document CHEMBL1201862, “PubChem BioAssay data set” (2004)
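Exposure lasted 48 hours, with cells grown in 96-well plates and compounds tested at five concentrations. GI50 = concentration required for 50% inhibition of growth.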 The source made the active and inactive calls. No stated cut-off is given here; in the data, active = GI50 up to about 1.1 µM and inactive = higher.

Columns and labels:
Assay in all cases: NCI-60 cell line screen, 48 h
SN12C = tested on: SN12C
LXFL 529 = tested on: LXFL 529
IGROV-1 = tested on: IGROV-1
DMS-114 = tested on: DMS-114
OVCAR-3 = tested on: OVCAR-3
SK-MEL-28 = tested on: SK-MEL-28
HCT-116 = tested on: HCT-116
CAKI-1 = tested on: CAKI-1
NCI-H226 = tested on: NCI-H226
U-251 = tested on: U-251
SK-MEL-2 = tested on: SK-MEL-2
SNB-19 = tested on: SNB-19
NCI-H23 = tested on: NCI-H23
RPMI-8226 = tested on: RPMI-8226
KM12 = tested on: KM12
CCRF-CEM = tested on: CCRF-CEM
KM-20L2 = tested on: KM-20L2
COLO 205 = tested on: COLO 205
DLD-1 = tested on: DLD-1
Malme-3M = tested on: Malme-3M
LOX IMVI = tested on: LOX IMVI
DMS-273 = tested on: DMS-273
M19-MEL = tested on: M19-MEL
HOP-92 = tested on: HOP-92
SK-OV-3 = tested on: SK-OV-3
RXF 631 = tested on: RXF 631
XF498 = tested on: XF498
SR = tested on: SR
UO-31 = tested on: UO-31
HCT-15 = tested on: HCT-15
OVCAR-4 = tested on: OVCAR-4
OVCAR-5 = tested on: OVCAR-5
MOLT-4 = tested on: MOLT-4
A549 = tested on: A549
HCC 2998 = tested on: HCC 2998
EKVX = tested on: EKVX
SK-MEL-5 = tested on: SK-MEL-5
K562 = tested on: K562
RXF 393 = tested on: RXF 393
ACHN = tested on: ACHN
786-0 = tested on: 786-0
OVCAR-8 = tested on: OVCAR-8
SF-295 = tested on: SF-295
TK-10 = tested on: TK-10
SW-620 = tested on: SW-620
SNB-78 = tested on: SNB-78
SF-268 = tested on: SF-268
NCI-H522 = tested on: NCI-H522
SF-539 = tested on: SF-539
HOP-62 = tested on: HOP-62
HOP-18 = tested on: HOP-18
UACC-62 = tested on: UACC-62
HT-29 = tested on: HT-29
NCI-H460 = tested on: NCI-H460
UACC-257 = tested on: UACC-257
SNB-75 = tested on: SNB-75
HL-60 = tested on: HL-60
M14 = tested on: M14
A498 = tested on: A498

## O=c1c(C(c2ccc([N+](=O)[O-])cc2)c2c(O)c3ccccc3n(-c3ccccc3)c2=O)c(O)c2ccccc2n1-c1ccccc1
SN12C
  GI50: 11.7 µM (inactive)
LXFL 529
  GI50: 8.05 µM (inactive)
IGROV-1
  GI50: 6.56 µM (inactive)
DMS-114
  GI50: 20.3 µM (inactive)
OVCAR-3
  GI50: 24.1 µM (inactive)
SK-MEL-28
  GI50: 16.5 µM (inactive)
HCT-116
  GI50: 18.7 µM (inactive)
CAKI-1
  GI50: 44.4 µM (inactive)
NCI-H226
  GI50: 24.1 µM (inactive)
U-251
  GI50: 10.2 µM (inactive)
SK-MEL-2
  GI50: 14.5 µM (inactive)
SNB-19
  GI50: 7.28 µM (inactive)
NCI-H23
  GI50: 11.2 µM (inactive)
RPMI-8226
  GI50: 12.2 µM (inactive)
KM12
  GI50: 17.7 µM (inactive)
CCRF-CEM
  GI50: 1.51 µM (inactive)
KM-20L2
  GI50: 27.2 µM (inactive)
COLO 205
  GI50: 23.2 µM (inactive)
DLD-1
  GI50: 6.41 µM (inactive)
Malme-3M
  GI50: 13 µM (inactive)
LOX IMVI
  GI50: 11.8 µM (inactive)
DMS-273
  GI50: 22.9 µM (inactive)
M19-MEL
  GI50: 32.5 µM (inactive)
HOP-92
  GI50: 9.18 µM (inactive)
SK-OV-3
  GI50: 7.38 µM (inactive)
RXF 631
  GI50: 14.7 µM (inactive)
XF498
  GI50: 19.7 µM (inactive)
SR
  GI50: 9.98 µM (inactive)
UO-31
  GI50: 8.51 µM (inactive)
HCT-15
  GI50: 10.1 µM
OVCAR-4
  GI50: 59.7 µM (inactive)
OVCAR-5
  GI50: 51.9 µM (inactive)
MOLT-4
  GI50: 2.7 µM (inactive)
A549
  GI50: 15.5 µM (inactive)
HCC 2998
  GI50: 12.4 µM (inactive)
EKVX
  GI50: 24.5 µM (inactive)
SK-MEL-5
  GI50: 11.4 µM (inactive)
K562
  GI50: 16.6 µM (inactive)
RXF 393
  GI50: 14.4 µM (inactive)
ACHN
  GI50: 13.9 µM (inactive)
786-0
  GI50: 11.6 µM (inactive)
OVCAR-8
  GI50: 14.9 µM (inactive)
SF-295
  GI50: 12.5 µM (inactive)
TK-10
  GI50: 44 µM (inactive)
SW-620
  GI50: 18.4 µM (inactive)
SNB-78
  GI50: 21.7 µM (inactive)
SF-268
  GI50: 15.3 µM (inactive)
NCI-H522
  GI50: 22.2 µM (inactive)
SF-539
  GI50: 12.6 µM (inactive)
HOP-62
  GI50: 14.5 µM (inactive)
HOP-18
  GI50: 2.4 µM (inactive)
UACC-62
  GI50: 3.76 µM (inactive)

## COc1cc2c(cc1O)C(C)Cc1cc3c(cc1N(C)CC2)OCO3 (stereo unspecified)
SN12C
  GI50: 5.94 µM (inactive)
LXFL 529
  GI50: 5.41 µM (inactive)
HT-29
  GI50: 12.9 µM (inactive)
IGROV-1
  GI50: 10 µM (inactive)
DMS-114
  GI50: 3.54 µM (inactive)
OVCAR-3
  GI50: 3.03 µM (inactive)
SK-MEL-28
  GI50: 6.22 µM (inactive)
HCT-116
  GI50: 4.04 µM (inactive)
CAKI-1
  GI50: 12.1 µM (inactive)
NCI-H226
  GI50: 6.65 µM (inactive)
U-251
  GI50: 4.01 µM (inactive)
SK-MEL-2
  GI50: 4.44 µM (inactive)
SNB-19
  GI50: 7.4 µM (inactive)
NCI-H23
  GI50: 4.07 µM (inactive)
RPMI-8226
  GI50: 4.09 µM (inactive)
KM12
  GI50: 4.15 µM (inactive)
NCI-H460
  GI50: 3.35 µM (inactive)
CCRF-CEM
  GI50: 4.59 µM (inactive)
KM-20L2
  GI50: 12.4 µM (inactive)
COLO 205
  GI50: 24.2 µM (inactive)
DLD-1
  GI50: 4.16 µM (inactive)
UACC-257
  GI50: 6.15 µM (inactive)
Malme-3M
  GI50: 3.12 µM (inactive)
LOX IMVI
  GI50: 5.68 µM (inactive)
DMS-273
  GI50: 2.87 µM (inactive)
M19-MEL
  GI50: 5.81 µM (inactive)
HOP-92
  GI50: 4.66 µM (inactive)
SK-OV-3
  GI50: 3.32 µM (inactive)
RXF 631
  GI50: 18.7 µM (inactive)
XF498
  GI50: 7.19 µM (inactive)
SR
  GI50: 4.45 µM (inactive)
UO-31
  GI50: 6.41 µM (inactive)
HCT-15
  GI50: 3.94 µM
SNB-75
  GI50: 2.45 µM (inactive)
OVCAR-4
  GI50: 15.7 µM (inactive)
OVCAR-5
  GI50: 23.1 µM (inactive)
MOLT-4
  GI50: 4.13 µM (inactive)
A549
  GI50: 3.94 µM (inactive)
HCC 2998
  GI50: 5.27 µM (inactive)
EKVX
  GI50: 4.26 µM (inactive)
SK-MEL-5
  GI50: 2.59 µM (inactive)
K562
  GI50: 2.8 µM (inactive)
RXF 393
  GI50: 1.77 µM (inactive)
ACHN
  GI50: 6.85 µM (inactive)
786-0
  GI50: 4.35 µM (inactive)
OVCAR-8
  GI50: 9.25 µM (inactive)
SF-295
  GI50: 2.78 µM (inactive)
TK-10
  GI50: 27.3 µM (inactive)
SW-620
  GI50: 3.74 µM (inactive)
SNB-78
  GI50: 5.12 µM (inactive)
SF-268
  GI50: 5.3 µM (inactive)
NCI-H522
  GI50: 2.18 µM (inactive)
SF-539
  GI50: 2.72 µM (inactive)
HL-60
  GI50: 4.61 µM (inactive)
HOP-62
  GI50: 10.6 µM (inactive)
M14
  GI50: 3.22 µM (inactive)
HOP-18
  GI50: 10.5 µM (inactive)
A498
  GI50: 13.2 µM (inactive)
UACC-62
  GI50: 3.5 µM (inactive)
